Molecular target: Mu-type opioid receptor (Homo sapiens, UniProt P35372)
Assay: Mu Opioid Receptor Binding Assay and Antagonist Functionality Assay
Conditions: pH 7.4; 22 °C
Description: In the binding assays, the results were expressed as percent inhibition of the control radioligand specific binding. The IC50 values (concentration causing a half maximal inhibition of control specific binding) were determined by non-linear regression analysis of the competition curves using Hill equation curve fitting. The inhibition constants (Ki) were calculated from the Cheng Prusoff equation. EC50/IC50 measures the antagonist activities on mu-agonist triggered luminescence in AequoScreen cells.

Mu-type opioid receptor, sequence (P35372 whole entry): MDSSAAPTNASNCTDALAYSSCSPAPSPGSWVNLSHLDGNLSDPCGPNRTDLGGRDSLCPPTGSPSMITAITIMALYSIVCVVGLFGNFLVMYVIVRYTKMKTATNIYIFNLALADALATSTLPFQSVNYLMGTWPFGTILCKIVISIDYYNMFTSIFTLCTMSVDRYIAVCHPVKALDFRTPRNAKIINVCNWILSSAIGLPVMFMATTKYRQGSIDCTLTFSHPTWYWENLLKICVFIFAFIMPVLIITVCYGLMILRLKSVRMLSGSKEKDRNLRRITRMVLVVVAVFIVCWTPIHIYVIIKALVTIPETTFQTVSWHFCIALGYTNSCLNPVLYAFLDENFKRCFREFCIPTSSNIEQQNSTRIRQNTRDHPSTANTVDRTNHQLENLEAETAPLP

SMILES	EC50
CC(C)N[C@@H]1CCn2c(=O)[nH]c3cccc(c32)[C@H]1O [(9R,10R)-9-hydroxy-10-(propan-2-ylamino)-1,3-diazatricyclo[6.4.1.0^{4,13}]trideca-4(13),5,7-trien-2-one]	> 1000 µM
CC(C)N[C@H]1CCn2c(=O)[nH]c3cccc(c32)[C@@H]1O [(9S,10S)-9-hydroxy-10-(propan-2-ylamino)-1,3-diazatricyclo[6.4.1.0^{4,13}]trideca-4(13),5,7-trien-2-one]	140 µM

Source: BindingDB's records for doi:10.1021/jm801211c (Intervet Innovation, 2009)
